Experimental data published in the NIST ThermoML archive (doi:10.1016/j.jct.2012.02.033).

Key:
[1] = 101.33 kPa, Liquid, Vibrating tube method
[2] = xn = mol fraction of the nth substance listed; settings: 101.3 kPa, Liquid, Vibrating tube method

C1CCOC1 [tetrahydrofuran]
[1]
Settings | mass density [kg/m3]
293.15 K | 888.73
298.15 K | 883.24
303.15 K | 877.6
308.15 K | 872.02
313.15 K | 866.23

CCNC=O [N-ethylformamide] + C1CCOC1
mass density [kg/m3], [2]
Settings | x1 = 0.1142 | x1 = 0.2142 | x1 = 0.3179 | x1 = 0.4258 | x1 = 0.5219 | x1 = 0.6177 | x1 = 0.7146 | x1 = 0.8111 | x1 = 0.9121
293.15 K | 896.3 | 903.1 | 910.05 | 917.17 | 923.35 | 929.34 | 935.26 | 940.88 | 946.8
298.15 K | 890.99 | 897.92 | 905.07 | 912.38 | 918.66 | 924.77 | 930.78 | 936.53 | 942.58
303.15 K | 885.68 | 892.77 | 900.1 | 907.54 | 913.98 | 920.19 | 926.31 | 932.18 | 938.31
308.15 K | 880.28 | 887.57 | 895.02 | 902.62 | 909.25 | 915.53 | 921.81 | 927.84 | 934.01
313.15 K | 874.84 | 882.2 | 889.89 | 897.66 | 904.45 | 910.99 | 917.2 | 923.35 | 929.64

CCOC(C)=O [ethyl acetate]
[1]
Settings | mass density [kg/m3]
293.15 K | 900.26
298.15 K | 894.14
303.15 K | 887.85
308.15 K | 881.52
313.15 K | 875.14

CCNC=O [N-ethylformamide]
[1]
Settings | mass density [kg/m3]
293.15 K | 951.59
298.15 K | 947.48
303.15 K | 943.29
308.15 K | 939.04
313.15 K | 934.78

CCC(C)=O [butanone]
[1]
Settings | mass density [kg/m3]
293.15 K | 808.64
298.15 K | 803.24
303.15 K | 797.88
308.15 K | 792.45
313.15 K | 786.94

CCNC=O [N-ethylformamide] + CCC(C)=O
mass density [kg/m3], [2]
Settings | x1 = 0.1242 | x1 = 0.2302 | x1 = 0.3384 | x1 = 0.4407 | x1 = 0.5398 | x1 = 0.6369 | x1 = 0.7317 | x1 = 0.8186 | x1 = 0.91
293.15 K | 826.16 | 840.95 | 856.12 | 870.55 | 884.78 | 898.71 | 912.21 | 925 | 938.61
298.15 K | 820.91 | 836.01 | 851.11 | 865.71 | 880.07 | 894.02 | 907.71 | 920.61 | 934.41
303.15 K | 815.8 | 830.97 | 846.25 | 860.93 | 875.4 | 889.48 | 903.31 | 916.28 | 930.12
308.15 K | 810.54 | 825.9 | 841.32 | 856.14 | 870.71 | 884.87 | 898.84 | 911.88 | 925.83
313.15 K | 805.22 | 820.74 | 836.31 | 851.26 | 865.95 | 880.2 | 894.3 | 907.42 | 921.48

CCNC=O [N-ethylformamide] + CCOC(C)=O
mass density [kg/m3], [2]
Settings | x1 = 0.1322 | x1 = 0.2514 | x1 = 0.3559 | x1 = 0.4653 | x1 = 0.564 | x1 = 0.671 | x1 = 0.7544 | x1 = 0.8376 | x1 = 0.9223
293.15 K | 907.89 | 914.13 | 919.39 | 924.91 | 929.7 | 935.01 | 939.27 | 943.3 | 947.63
298.15 K | 901.99 | 908.51 | 914.06 | 919.68 | 924.66 | 930.12 | 934.56 | 938.85 | 943.28
303.15 K | 896.06 | 902.84 | 908.62 | 914.51 | 919.65 | 925.33 | 929.93 | 934.35 | 938.94
308.15 K | 890.09 | 897.16 | 903.23 | 909.29 | 914.62 | 920.5 | 925.29 | 929.86 | 934.56
313.15 K | 884.03 | 891.14 | 897.65 | 903.98 | 909.53 | 915.67 | 920.55 | 925.31 | 930.15
